# Laboratory results as given in patent US11987588B2, “Modulators of the beta-3 adrenergic receptor useful for the treatment or prevention of heart failure and disorders related thereto” (Arena Pharmaceuticals, Inc., priority 2017, dated 2024).
# Target: Beta-3 Adrenergic Receptor (Homo sapiens (Human), UniProt P13945)
# Experiment: Homogeneous Time-Resolved Fluorescence (HTRF) cAMP antagonist assay, IC50 determination
# Format: cell-based
# Details: CHO-K1 cells stably expressing recombinant receptor, isoproterenol at EC90
# In short: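 Antagonist mode: isoproterenol at its predetermined EC90 added after compound to recombinant CHO-K1 cells in IBMX-containing PBS, 1 h, room temperature. Compounds tested as 5-fold, 10-point dilutions, top final typically 10 or 100 μM. HTRF signal converted to cAMP via standard curve, giving IC50.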
# Chain of Beta-3 Adrenergic Receptor (P13945 whole entry, species assumed): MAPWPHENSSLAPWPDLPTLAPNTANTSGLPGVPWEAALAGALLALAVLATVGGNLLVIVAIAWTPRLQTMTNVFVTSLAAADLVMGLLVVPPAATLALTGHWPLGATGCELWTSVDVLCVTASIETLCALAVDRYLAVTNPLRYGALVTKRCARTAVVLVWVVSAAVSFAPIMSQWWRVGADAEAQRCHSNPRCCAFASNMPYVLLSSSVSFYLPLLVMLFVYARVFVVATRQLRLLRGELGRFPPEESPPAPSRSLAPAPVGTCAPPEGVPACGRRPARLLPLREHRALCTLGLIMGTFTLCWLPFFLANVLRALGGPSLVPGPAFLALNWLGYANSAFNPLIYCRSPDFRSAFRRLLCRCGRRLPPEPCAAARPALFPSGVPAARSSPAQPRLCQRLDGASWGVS
row,Compound,IC50 [nM]
1,"O=S(=O)(NC1CC1)c1cccc(OC[C@@H](O)CNC2COC3(CCN(S(=O)(=O)c4ccc5ccccc5c4)CC3)C2)c1 (stereo partly drawn) [Compound 74, N-cyclopropyl-3-((2S)-2-hydroxy-3-(8-(naphthalen-2-ylsulfonyl)-1-oxa-8-azaspiro[4.5]decan-3-ylamino)propoxy)benzenesulfonamide]",236
2,"Cc1nc2cc(S(=O)(=O)N3CCC4(CC3)C[C@@H](NC[C@H](O)COc3cccc(S(N)(=O)=O)c3)CO4)cnc2[nH]1 [Compound 559, 3-((S)-2-hydroxy-3-((R)-8-(2-methyl-3H-imidazo[4,5-b]pyridin-6-ylsulfonyl)-1-oxa-8-azaspiro[4.5]decan-3-ylamino)propoxy)benzenesulfonamide]",34.7
3,CNS(=O)(=O)c1cccc(OC[C@@H](O)CN[C@H]2COC3(CCN(S(=O)(=O)c4cncc(-c5ccc(CN)cc5)c4)CC3)C2)c1 [Compound 375],25.4
4,"CNS(=O)(=O)c1cccc(OC[C@@H](O)CNC2COC3(CCN(S(=O)(=O)c4cccc(-c5cnn(Cc6ccccc6)c5)c4)CC3)C2)c1 (stereo partly drawn) [Compound 77, 3-((2S)-3-(8-(3-(1-benzyl-1H-pyrazol-4-yl)phenylsulfonyl)-1-oxa-8-azaspiro[4.5]decan-3-ylamino)-2-hydroxypropoxy)-N-methylbenzenesulfonamide]",17.5
5,"CN(C)S(=O)(=O)c1cccc(OC[C@@H](O)CNC2COC3(CCN(S(=O)(=O)c4ccc(Cl)c5nonc45)CC3)C2)c1 (stereo partly drawn) [Compound 257, 3-((2S)-3-(8-(7-chlorobenzo[c][1,2,5]oxadiazol-4-ylsulfonyl)-1-oxa-8-azaspiro[4.5]decan-3-ylamino)-2-hydroxypropoxy)-N,N-dimethylbenzenesulfonamide]",37
6,"CCn1cc(S(=O)(=O)N2CCC3(CC2)C[C@@H](NC[C@H](O)COc2cccc(S(=O)(=O)NC)c2)CO3)c(=O)c2ccc(F)cc21 [Compound 546, 3-((S)-3-((R)-8-(1-ethyl-7-fluoro-4-oxo-1,4-dihydroquinolin-3-ylsulfonyl)-1-oxa-8-azaspiro[4.5]decan-3-ylamino)-2-hydroxypropoxy)-N-methylbenzenesulfonamide]",53

# Second part, the molecule after the results:
row,IC50 [nM],Compound
1,266,"CNS(=O)(=O)c1cccc(OC[C@@H](O)CN[C@H]2COC3(CCN(c4nc(OC)cc(OC)n4)CC3)C2)c1 [Compound 584, 3-((S)-3-((R)-8-(4,6-dimethoxypyrimidin-2-yl)-1-oxa-8-azaspiro[4.5]decan-3-ylamino)-2-hydroxypropoxy)-N-methylbenzenesulfonamide]"
2,58.8,"CNS(=O)(=O)c1cccc(OC[C@@H](O)CN[C@H]2COC3(CCN(S(=O)(=O)c4c[nH]c5ncccc45)CC3)C2)c1 [Compound 507, 3-((S)-3-((R)-8-(1H-pyrrolo[2,3-b]pyridin-3-ylsulfonyl)-1-oxa-8-azaspiro[4.5]decan-3-ylamino)-2-hydroxypropoxy)-N-methylbenzenesulfonamide]"
3,429,"CNS(=O)(=O)c1cccc(OC[C@@H](O)CN[C@H]2COC3(CCN(c4ccccn4)CC3)C2)c1 [Compound 561, 3-((S)-2-hydroxy-3-((R)-8-(pyridin-2-yl)-1-oxa-8-azaspiro[4.5]decan-3-ylamino)propoxy)-N-methylbenzenesulfonamide]"
4,16.6,"CNS(=O)(=O)c1cccc(OC[C@@H](O)CNC2COC3(CCN(S(=O)(=O)c4cccc(-c5cnn(CC(C)C)c5)c4)CC3)C2)c1 (stereo partly drawn) [Compound 81, 3-((2S)-2-hydroxy-3-(8-(3-(1-isobutyl-1H-pyrazol-4-yl)phenylsulfonyl)-1-oxa-8-azaspiro[4.5]decan-3-ylamino)propoxy)-N-methylbenzenesulfonamide]"
5,30.7,"CNS(=O)(=O)c1cccc(OC[C@@H](O)CNC2COC3(CCN(S(=O)(=O)c4ccccc4C#N)CC3)C2)c1 (stereo partly drawn) [Compound 39, 3-((2S)-3-(8-(2-cyanophenylsulfonyl)-1-oxa-8-azaspiro[4.5]decan-3-ylamino)-2-hydroxypropoxy)-N-methylbenzenesulfonamide]"
